Measurements as given in patent US20100120810A1, “COMPOUNDS AND METHODS FOR MODULATING RHO GTPASES” (priority 2007, published 2010).
Counter-ions that a name gives are not always drawn. Like-named read-outs stand apart in the source and are kept apart here.

Columns and labels:
Assay type in all cases: biochemical
Cdc42 = target: T1, Cdc42 (Homo sapiens, UniProt P60953); test: Nucleotide binding assay: BODIPY-GTP binding to Cdc42; conditions: read-out: Cdc42 % inhibition of BODIPY-GTP binding
T1 construct: GST (N); made in house; host or cells: E. coli BL21 Codon+RIL
T1 sequence (P60953 whole entry, species assumed): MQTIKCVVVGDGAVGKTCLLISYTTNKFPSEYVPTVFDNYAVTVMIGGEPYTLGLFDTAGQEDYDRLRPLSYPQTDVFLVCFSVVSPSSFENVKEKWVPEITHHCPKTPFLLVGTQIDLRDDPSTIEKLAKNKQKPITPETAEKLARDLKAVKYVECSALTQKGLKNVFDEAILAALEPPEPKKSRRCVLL
Protocol: (§1) Fluorescence of GTP analog BODIPY-GTP increases when it binds to small G proteins. This property was used to assess ability of compounds to inhibit nucleotide binding to Rac1, Rac1b and Cdc42. 2 μM GST-Rac1 and 6 μg His6-Tiam1-DH/PH were diluted in a buffer containing 20 mM Tris, 50 mM NaCl, and 1 mM MgCl2. This mixture was loaded in a 96-well plate. Fluorescence recording were started (λEx: 485 nm; λEm: 538 nm) using a spectrofluorimeter (Fluoroskan; Thermolab Systems). Assay was initiated by the addition of 2 μM BODIPY-GTP with or without various doses of test compound. Fluorescence values were recorded, and data were processed as follows: background fluorescence (unbound BODIPY-GTP) was retrieved from fluorescence values.
(§2) This assay allows determining whether compounds can inhibit the binding of a fluorescent nucleotide to recombinant small G proteins of interest. The effect of various alkaloid compounds on binding of BODIPY-GTP to Rac1 activated by DH/PH domain of Guanine nucleotide Exchange Factor Tiam1 (Rac1/Tiam1), Rac1b and Cdc42 is described below.

Rac1b = target: T2, Rac1b (Homo sapiens, UniProt P63000); test: Nucleotide binding assay: BODIPY-GTP binding to Rac1b; conditions: for inhibition at 50 µM: read-out: Rac1b % inhibition of BODIPY-GTP binding
T2 construct: GST (N); made in house; host or cells: E. coli BL21 Codon+RIL
Protocol: as §1, §2

[1] = target: T3, Rac1 activated by DH/PH domain of Guanine nucleotide Exchange Factor Tiam1 (Rac1/Tiam1) (Homo sapiens, UniProt P63000); test: Nucleotide binding assay: BODIPY-GTP binding to Rac1 activated by Tiam1 DH/PH; conditions: for inhibition at 50 µM: read-out: Rac1 % inhibition of BODIPY-GTP binding
T3 construct: made in house; host or cells: E. coli BL21 Codon+RIL
Protocol: as §1, §2

[2] = final concentration of 50 μM, Rac1/Tiam1
[3] = dose-response study (1-2-5-10-25-50-75-100 μM)

inhibition at 50 µM (Cdc42; final concentration of 50 μM) [%]	inhibition at 50 µM (Rac1b; final concentration of 50 μM) [%]	inhibition at 50 µM [1, 2] [%]	Structure (SMILES)	further results
2	9 ± 3	8 ± 3	COc1cc2cc(-c3ccccc3NC(=O)N(C)C)nc(C)c2cc1OC [Compound 46, 3-(2-(6,7-Dimethoxy-1-methylisoquinolin-3-yl)phenyl)-1,1-dimethylurea hydrochloride]	–
14 ± 3	10 ± 4	3 ± 4	COc1cc2cc(-c3cccc([N+](=O)[O-])c3)nc(C)c2cc1OC [Compound 23, 6,7-Dimethoxy-1-methyl-3-(3-nitrophenyl)isoquinolinium chloride]	–
2 ± 6	2 ± 4	1 ± 5	COc1cc2cnc(-c3ccccc3)cc2cc1OC [Compound 49, 6,7-Dimethoxy-3-phenylisoquinolinium chloride]	–
5 ± 1	42 ± 7	17 ± 7	COc1cc2cc(-c3ccc(Cl)c(Cl)c3)nc(C)c2cc1OC [Compound 39, 3-(3,4-Dichlorophenyl)-6,7-dimethoxy-1-methylisoquinolinylium chloride]	–
11 ± 2	6 ± 2	6 ± 4	COc1ccc(-c2cc3cc(OC)c(OC)cc3c(C)n2)cn1 [Compound 35, 6,7-Dimethoxy-3-(6-methoxypyridin-3-yl)-1-methylisoquinoline dimethanesulfonate]	–
10 ± 1	10 ± 3	-1 ± 2	COc1cc2cc(-c3cccc(NC(C)=O)c3)nc(C)c2cc1OC [Compound 31, N-(3-(6,7-Dimethoxy-1-methylisoquinolin-3-yl)phenyl)acetamide hydrochloride]	–
2 ± 1	10 ± 4	4 ± 5	COc1cc2cc(-c3ccc(C(=O)OC(C)C)cc3)nc(C)c2cc1OC [Compound 32, Isopropyl 4-(6,7-dimethoxy-1-methylisoquinolin-3-yl)benzoate hydrochloride]	–
10 ± 1	8 ± 3	10 ± 3	COc1cc2cc(-c3ccccc3)nc(C)c2cc1OC [Compound 44, 6,7-Dimethoxy-1-methyl-3-phenylisoquinolinylium chloride]	–
14 ± 1	17 ± 3	15 ± 3	COc1ccc(-c2cc3cc(OC)c(OC)cc3c(C)n2)cc1 [Compound 40, 6,7-Dimethoxy-3-(4-methoxyphenyl)-1-methylisoquinolinylium chloride]	–
18 ± 2	12 ± 2	13 ± 2	COc1cc2cc(-c3ccc4c(c3)OCO4)nc(C)c2cc1OC [Compound 21, 3-(Benzo[d][1,3]dioxol-5-yl)-6,7-dimethoxy-1-methylisoquinoline hydrochloride]	–
11 ± 2	17 ± 3	18 ± 3	COc1cc2cc(-c3ccc(Cl)cc3)nc(C)c2cc1OC [Compound 42, 3-(4-Chlorophenyl)-6,7-dimethoxy-1-methylisoquinolinylium chloride]	–
15 ± 2	17 ± 2	19 ± 1	COc1cc2cc(-c3ccc(C)cc3)nc(C)c2cc1OC [Compound 43, 6,7-Dimethoxy-1-methyl-3-p-tolylisoquinolinylium chloride]	–

Continued, molecule first:

Structure (SMILES)	inhibition at 50 µM (Cdc42; final concentration of 50 μM) [%]	inhibition at 50 µM (Rac1b; final concentration of 50 μM) [%]	inhibition at 50 µM [1, 2] [%]	further results
COc1cc2c(cc1OC)CN(Cc1cccc(OC)c1OC)CC2 [Compound 7, 2-(2,3-Dimethoxybenzyl)-6,7-dimethoxy-1,2,3,4-tetrahydroisoquinoline hydrochloride]	-1 ± 1	6 ± 3	0	–
COc1cc2cc3c4cc(OC)c(OC)cc4cc[n+]3c(C)c2cc1OC [Compound 8, 8-methyl-2,3,10,11-tetramethoxydibenzo[a,g]quinolizinium chloride, hydrate, reference compound]	–	–	–	inhibition at 50 µM (Cdc42): 21 ± 2%; inhibition at 50 µM (Rac1b): 44 ± 4%; inhibition at 50 µM [1]: 36 ± 4%
COc1ccc2c(c1OC)CN1CCc3cc(O)c(O)cc3C1C2 (racemic) [Compound 17, (±)-9,10-Dimethoxy-5,8,13,13a-tetrahydro-6H-isoquino[3,2-a]isoquinoline-2,3-diol hydrochloride]	–	–	–	inhibition at 50 µM (Cdc42): -13 ± 12%; inhibition at 50 µM (Rac1b): -7 ± 4%; inhibition at 50 µM [1]: 5 ± 3%
COc1cc2cc(-c3ccccc3)[n+](C)cc2cc1OC [Compound 50, 6,7-Dimethoxy-2-methyl-3-phenylisoquinolinium chloride]	10 ± 6	10 ± 5	3 ± 5	–
Cc1c2cc(O)c(O)cc2cc2c3cc(O)c(O)cc3cc[n+]12 [Compound 15, 8-Methyl-isoquino[3,2-a]isoquinolinylium-2,3,10,11-tetraol chloride]	70 ± 3	72 ± 4	63 ± 4	IC50 (Rac1b; dose-response study): 13.2 ± 4.3 µM
COc1cc2cc(-c3cccc(C(C)=O)c3)[n+](C)c(C)c2cc1OC [Compound 25, 3-(3-Acetylphenyl)-6,7-dimethoxy-1,2-dimethylisoquinolinium chloride]	7 ± 1	29 ± 3	20 ± 3	–
COc1ccc2cc3[n+](cc2c1OC)CCc1cc2c(cc1-3)OCO2 [Compound 1, Berberine chloride, reference compound]	8 ± 2	23 ± 2	15 ± 2	maximum inhibition on Rac1b (Rac1b; [3]): 29±1%; maximum inhibition on Rac1/Tiam1 [1, 3]: 19±1%
CCc1cc2c(cc1C1Cc3ccc(OC)c(OC)c3CN1C)OCO2 (racemic) [Compound 20, (±)-3-(6-Ethylbenzo[d][1,3]dioxol-5-yl)-7,8-dimethoxy-2-methyl-1,2,3,4-tetrahydroisoquinolinylium chloride]	8 ± 3	-6 ± 10	4 ± 4	–
COc1cc2cc(-c3ccc(O)c(O)c3)[n+](C)c(C)c2cc1OC [Compound 27, 3-(3,4-Dihydroxyphenyl)-6,7-dimethoxy-1,2-dimethylisoquinolinium chloride]	5 ± 2	17 ± 1	6 ± 2	–
COc1ccc2c(c1OC)C(Cc1ccccc1)N1CCc3cc4c(cc3C1=C2)OCO4 (stereo not drawn) [Compound 11, 8-benzyl-9,10-dimethoxy-5,8-dihydro-2H-6H-[1,3]dioxolo[4,5-g]isoquino[3,2-a]isoquinoline]	1 ± 1	-2 ± 3	-1 ± 2	–
COc1ccc(Cc2nccc3cc(OC)c(OC)cc23)cc1OC [Compound 9, 1-(3,4-dimethoxybenzyl)-6,7-dimethoxyisoquinoline hydrochloride, reference compound]	–	–	–	inhibition at 50 µM (Cdc42): 2 ± 2%; inhibition at 50 µM (Rac1b): 5 ± 2%; inhibition at 50 µM [1]: 1 ± 2%
COc1ccc2c(c1OC)C[N+]1(Cc3ccccc3)CCc3cc4c(cc3C1C2)OCO4 (racemic) [Compound 5, (±)-7-benzyl-9,10-dimethoxy-5,8,13,13a-tetrahydro-6H-[1,3]dioxolo[4,5-g]isoquino[3,2-a]isoquinolinylium bromide]	3 ± 1	16 ± 2	9 ± 2	–
COc1ccc2c(c1OC)C(Cc1ccccc1)N1CCc3cc4c(cc3C1C2)OCO4 (racemic) [Compound 12, (±)-8-Benzyl-9,10-dimethoxy-5,8,13,13a-tetrahydro-6H-[1,3]dioxolo[4,5-g]isoquino[3,2-a]isoquinoline hydrochloride]	9 ± 2	31 ± 4	23 ± 3	–
COc1ccc2c(c1OC)C(c1ccccc1)N1CCc3cc4c(cc3C1=C2)OCO4 (stereo not drawn) [Compound 10, 9,10-dimethoxy-8-phenyl-5,8-dihydro-2H-6H-[1,3]dioxolo[4,5-g]isoquino[3,2-a]isoquinoline]	17	27 ± 2	18 ± 2	–
COc1cc2c(cc1OC)CN(Cc1cccc(O)c1O)CC2 [Compound 18, 2-(2,3-Dihydroxybenzyl)-6,7-dimethoxy-1,2,3,4-tetrahydroisoquinolinium chloride]	-8 ± 10	4 ± 3	1 ± 2	–
Oc1cc2c(cc1O)-c1cc3ccc(O)c(O)c3c[n+]1CC2 [Compound 6, 5,6-dihydro-isoquino[3,2-a]isoquinolinylium-2,3,9,10-tetraol chloride]	100	–	–	–
COc1ccc2c(c1OC)CN1CCc3cc4c(cc3C1C2)OCO4 (racemic) [Compound 3, (±)-Canadine hydrochloride]	–	–	–	inhibition at 50 µM (Rac1b): -7 ± 4%; inhibition at 50 µM [1]: 1 ± 3%
